Experimental data: patent US10137099B2, “Activation of AMP-protein activated kinase by oxaloacetate compounds” (priority 2010, dated 2018)
Read-outs that look alike come from different tables or passages of the source.

How the values were obtained:
ob/ob and db/db mice = conditions: 8 day administration; cited from earlier work
[1] = Example 5: blood pressure in patient with hypertension; assay type: in vivo, human; conditions: 100 mg daily for three months
Source text: A patient is diagnosed with hypertension. […] The patient's blood pressure decreases by 10%.

[2] = Example 3: body weight of obese patient over three months; assay type: in vivo, human
Source text: AMPK is activated and the patient drops in weight from 258 to 234 pounds in a three month period. The patient is no longer obese.

[3] = Example 4: maintenance of weight loss after diet; assay type: in vivo, human; conditions: 100 mg daily
Source text: A patient successfully loses 24 pounds.

[4] = Example 2: fasting blood glucose tracked for several weeks; assay type: in vivo, human; conditions: 100 mg daily
Source text: The amplitude of the patient's swings in fasting glucose decrease by 55% due to improved glucose homeostasis. AMPK is activated and overall fasting glucose levels drop by 8%. The data is shown in Graph 3.

[5] = Stability and shelf life of oxaloacetic acid forms; conditions: for stability / shelf life at room temperature: kept dry, reduced water content
Source text: (§1) The keto-oxaloacetate decarboxylates quickly to pyruvate. As the keto-oxaloacetate form disappears due to decarboxylation, the enol and hydrated form convert to keto-oxaloacetate, and then also decarboxylate into carbon dioxide and pyruvate, until all the oxaloacetate is consumed. Note that neither of the byproducts of oxaloacetate decarboxylation, carbon dioxide and pyruvate, are effective in activating AMPK.
(§2) The keto-oxaloacetate decarboxylates quickly, followed by enol conversion to keto form and further decarboxylation. […] Na-OAA has no shelf life, and is not available commercially.
There is an energy gap between the enol and keto form which is bridged when the compounds are exposed to water, however, this same energy gap prevents the conversion of the enol to keto form when the product is kept dry. Once there is a conversion to the keto form, decarboxylation can spontaneously occur at temperatures above the freezing point of water. […] Drying effectiveness can be increased by increasing the drying time, drying under vacuum, by using anhydrous washes of isopropyl alcohol or ethyl alcohol to absorb the remaining water (and then evaporating the alcohol), or by performing multiple washes with hexane or non-water soluble solvent to physically remove the water, typically after an alcohol wash. The non-water soluble solvent would then be evaporated off. […] Hexane is a residual solvent in many commercial food preparations including decaffeinated coffee, and is not toxic in small quantities. Alternatively, the final wash can be performed with liquefied propane, liquefied butane, ethyl acetate, ethane, carbon dioxide, or nitrous oxide to reduce the water content.
Biochem., vol. 26, pp. 418-421, 1950, also in Heidelberger; “The Synthesis of Oxalacetic Acid-1-C14 and Orotic Acid-6-C14”, Biochem. Prepn. 3, 59 (1953) pp 4704-4706.

[6] = Example 1: non-diabetic subject, blood panel after 6 months; assay type: in vivo, human
Description: A non-diabetic subject is given 100 mg anhydrous enol-oxaloacetic acid in solid form for a period of 6 months to reduce blood triglycerides and glucose levels. AMPK is activated and the treatment is effective.

in vivo = conditions: rat
Source text: (§3) I have investigated the toxicity of OAA in an acute study and two chronic studies.
(§4) The dose ratio between toxic and therapeutic effects is the therapeutic index and it can be expressed as the ratio LD50/ED50.

rats = conditions: cited from earlier work
C. elegans = C. elegans lifespan with functional and non-functional AMPK; assay type: in vivo, Caenorhabditis elegans; conditions: for lifespan of worms with non-functional alpha AMPK subunit: dysfunctional aak-2 subunit; for lifespan of worms with non-functional alpha AMPK subunit / increase of lifespan: 8 mM oxaloacetate; for increase of lifespan: worms with functional FOXO/DAF-16 and AMPK, p<0.001
Description: I have assayed the CR mimetic OAA for AMPK activation by using the worm C. elegans containing a non-functional alpha AMPK subunit, and have compared lifespan with and without the functional AMPK subunit. […] Graph 1 is the Kaplan-Meyer survival curves for worms with functional and non-functional AMPK showing the difference in lifespan.
AMPK activation is necessary to increase lifespan of C. elegans when exposed to 8 mM concentrations of oxaloacetate. The increase in lifespan averages approximately 25%, p<0.001.

[7] = test system: human A549 lung cancer tissue; conditions: uM levels, contact solution of 76 uM; not within normal tissue; cancer tissue unable to reproduce for six weeks; cited from earlier work
[8] = Hydrated/keto/enol composition in water; assay type: physicochemical; conditions: pH 6.9 (oxaloacetic acid), Na-OAA dissolved in water
Source text: The oxaloacetate can be in three forms depending on the pH of the solution. At low pH (<1.5) and low temperature (<4 degrees C.) oxaloacetate hydrates. […] The hydrated form is mostly converted once it enters the higher pH of the body outside of the intestinal tract to the keto and enol form. […] Enol-oxaloacetate is convert to keto-oxaloacetate with the enzyme enol-keto tautomerase, a ubiquitous enzyme throughout the human body.
as §1, §2

[9] = 21 diabetic patients, cited from earlier work
[10] = Blood-brain barrier penetration
Source text: AMPK activation has been associated with reduced Alzheimer risk and potentially with Alzheimer's treatment (Richter, Erik and Ruderman, Neil, “AMPK and the biochemistry of exercise: implications for human health and disease” Biochem. J. (2009) 418, 261-275). Thus OAA may be used for reducing the risk of Alzheimer's disease and for treatment of the same.

older mice = assay: Chronic eighteen-month study in older mice; assay type: in vivo; conditions: 380 mg OAA/kg of mouse, eighteen months
mouse = test system: mouse
Source text: as §3, §4

[11] = Removal of orally consumed oxaloacetic acid from blood stream into cells; assay type: in vivo, human
Description: The oxaloacetic acid is converted to the ionic form oxaloactate in the digestive tract, and is then absorbed into the body and is distributed throughout the body via the bloodstream. […] At time 0, the amount detected was 0 ug/100 ml blood, at time 30 minutes 0 ug/100 ml blood, and at time 60 minutes ranged from […] blood. […] Within the cells the oxaloacetate reacts into L-malate as it encounters the enzyme malate dehydrogenase (MDH). MDH is ubiquitous in human cells, and the conversion of oxaloacetate to malate is very energetically favorable (the Gibbs Free Energy, delta G, is highly negative (−29.7) indicating the reaction is very favorable to proceed). As oxaloacetate is converted to malate, NADH is converted to NAD+. The resulting increase in the NAD+/NADH ratio leads to the phosphorylation (activation) of AMPK (Rafaeloff-Phail R, Ding L, Conner L, et al. “Biochemical regulation of mammalian AMP-activated protein Kinase activity by NAD and NADH”. J Biol Chem 2004; 279: 52934-9). AMPK serves to stimulate glucose uptake into the skeltal tissues and thereby reduces glucose levels. The immediate reduction is best seen with a glucose tolerance test in individuals that have defective leptin signaling (including overweight and obese persons) that are fasting. […]

[12] = Glucose related effects of supplementation in humans; assay type: in vivo, human; conditions: non-diabetic patients
Source text: Glucose related effects in humans have measured an 8 to 10% drop in fasting glucose levels in non-diabetic patients, a drop in triglyceride levels by 10% and a 55% reduction in the amplitude of fasting blood glucose levels.

[13] = Decrease (Improvement), February to August 2007

For `NC(=O)c1ncn([C@@H]2O[C@H](CO)[C@@H](O)[C@H]2O)c1N` [AICAR, 5-Aminoimidazole-4-darboxamide ribonucleoside], the “reduction of blood glucose” value (ob/ob and db/db mice) is listed as 35%.

In the case of `O=C(O)CC(=O)C(=O)O` [anhydrous enol-oxaloacetic acid], the “decrease of blood pressure” value [1] is reported as 10%, the “Ending Weight May 2007” value ([2]; 100 mg daily, three month period, starting weight 258) is reported as 234 pounds and the “Percent Reduction of weight” value ([2]; February 2007 to May 2007) is reported as 9.3%. The “liver genes Acaa1, Cnbp, Fasn, Idil, Ndufabl, Pcx, Sc5d (human homologues)” value [3] was “down regulates”, the “regain of weight lost” value ([3]; one-year period after the diet, 24 pounds lost) was “does not regain the weight lost” and the “decrease of amplitude of swings in fasting glucose” value [4] was 55%. The “drop of overall fasting glucose levels” value [4] was 8%, the “stability / shelf life at room temperature” value [5] was “exceeding one year” and the “stability / shelf life at room temperature” value ([5]; listed as reduced water content oxaloacetate form) was “exceed one year”. The product decay ([5]; room temperatures, shelf life exceeding one year) was “less than 1%”, the “Glucose Fasting, August 2007” value ([6]; 100 mg daily for 6 months, February 2007 baseline 97) was 89 mg/dL and the “Glucose Fasting % Change” value [6, 13] was 8.25%. The “Triglyceride % Change” value [6, 13] was 8.93%, the “Creatinine, August 2007” value ([6]; after 6 months, baseline 1) was 0.9 mg/dL and the “TSH, August 2007” value ([6]; after 6 months, baseline 1.41) was 1.32 uIU/ml. The “Albumin, August 2007” value ([6]; after 6 months, baseline 4.4) was 4.2 g/dL, the “K (Potassium), August 2007” value ([6]; after 6 months, baseline 4.6) was 4.5 mEq/L and the “Bun-Ser, August 2007” value ([6]; after 6 months, baseline 14) was 12 mg/dL. For the same compound, the “AST (SGOT), August 2007” value ([6]; after 6 months, baseline 16) was 15 IU/L, the “Lipase, August 2007” value ([6]; after 6 months, baseline 17) was 19 u/l and the “CO2 (Carbon Dioxide), August 2007” value ([6]; after 6 months, baseline 27) was 29 mEq/L. The “ALK P'TASE, August 2007” value ([6]; after 6 months, baseline 36) was 37 IU/L, the “HDL Ser Cholesterol, August 2007” value ([6]; after 6 months, baseline 42) was 42 mg/dL and the “Cl (Chloride), August 2007” value ([6]; after 6 months, baseline 110) was 108 mEq/L. The “Triglyceride, August 2007” value ([6]; after 6 months, baseline 112) was 102 mg/dL, the “LDL Cholesterol, August 2007” value ([6]; after 6 months, baseline 138) was 138 mg/dL and the “Na (Sodium), August 2007” value ([6]; after 6 months, baseline 144) was 143 mEq/L. For the same compound, the “Total Cholesterol, August 2007” value ([6]; after 6 months, baseline 202) was 203 mg/dL.

In the case of `O=C(O)CC(O)(O)C(=O)O` [hydrated form of oxaloacetic acid], the shelf life [5] is reported as “no shelf life” and the time of stability [5] is reported as “less than one-week's time”.

For `O=C(O)CC(=O)C(=O)O` [oxaloacetic acid], the NOAEL at 90 days (in vivo) is listed as 500 mg/kg, the “pancreas findings at 41 mg/kg of body weight” value (rats; 41 mg/kg) is listed as “proliferation and hyperplasia of the islet cells” and the “pancreas findings at 83 mg/kg of body weight” value (rats; 83 mg/kg) is listed as “caused changes in pancreatic islets”. For the same compound, the “lifespan of worms with non-functional alpha AMPK subunit” value (C. elegans) was “no increase in lifespan”, the “lifespan of worms with non-functional alpha AMPK subunit” value (C. elegans; listed as OAA) was “will not increase the lifespan” and the “lifespan of wild type worms subjected to calorie restriction” value (C. elegans; functional AMPK, calorie restriction plus OAA supplementation) was “do not have their lifespan increased”. The increase of lifespan (C. elegans) was “approximately 25%”, the increase of lifespan (C. elegans; listed as OAA) was 25% and the “effect on cancer tissue” value [7] was “differential massive debris within the cancer tissue”. For the same compound, the “fraction in the enol form” value [8] was 11%, the “fraction in the hydrated form” value [8] was 5% and the “fraction in the keto form” value [8] was 84%. The side effects ([9]; 100 mg to 1,000 mg (2-10 mg/kg)) was “no negative side effects”, the blood glucose levels ([9]; 100 mg to 1,000 mg) was “dropped significantly in all patents” and the “patients in whom urine glucose levels dropped” value ([9]; 100 mg to 1,000 mg) was 19 out of the 21. The blood-brain barrier penetration [10] was “can penetrate the blood-brain barrier”, the “lived longer than the control group” value (older mice) was 25% and the time to decarboxylation ([5]; divalent cations in the fluid) was “within a day”. The LD50 (mouse; acute study, taken with food) was “more than 5,000 mg OAA/Kg of mouse”, the LD50 (mouse; mouse, in vivo) was “above 5 g/kg of body weight” and the “time until most is moved from the blood stream into individual cells” value [11] was no more than 120 min. For the same compound, the “drop in triglyceride levels” value [12] was 10% and the “reduction in the amplitude of fasting blood glucose levels” value [12] was 55%.

With `O=C([O-])CC(=O)C(=O)O.[Na+]` [sodium oxaloacetate] the “fraction in the enol form” value [8] was 11%, the “fraction in the hydrated form” value [8] was 5% and the “fraction in the keto form” value [8] was 84%. The shelf life [5] was “no shelf life”.
